In patent US8999921B2, “Process for diagnosing rheumatic diseases” (Cypress Bioscience, Inc., priority 2005, dated 2015):

Assays:
[1] = biological target: T1, antibody binding to mutated vimentin (Homo sapiens, UniProt P08670, A54Y/A67Y/G16R/G41R/G59R/G76R/P18T/P24T/P46T/P75T/R78S); experiment: Blocking of antibody binding to mutated vimentin in vitro (ELISA, RA sera)
T1 construct: His-tag; made in house; host or cells: E. coli
Experimental: To prepare an extract from green tea, 5 g of any commercially available tea were covered with 10 ml of 80% DMSO and stirred overnight. The solution was centrifuged at 13 000 rpm for 10. min and defined as tea extract. In contrast to the above solid substances 1, 2 and 4-6, 10 μl/ml tea extract of this preparation were employed. Antibody binding in the presence and absence of substances was analyzed in an ELISA for which microtiter plates were prepared analogously to Example 2. Different sera of RA patients were used in dilutions of from 1:100 to 1:400. Blocking of antibody binding was induced by preincubating 100 μl of the diluted serum with the substances or tea solutions indicated for 10 min. Subsequently, the remaining crossreaction was analyzed by transferring the 100 μl of serum-substance mixture to the cavities of said microtiter plate. According to the procedure of a classical ELISA, the bound antibodies were detected by means of a HRP-conjugated anti-human IgG. FIG. 3 depicts by way of example the results obtained using patient serum No. 400725.

[2] = Oral administration of freeze-dried tea extract to rats, plasma analysis by HPLC and GC/MS; type: in vivo
From the text: Therefore the tea extracts prepared by us (see Example 7) were freeze-dried and reconstituted with cocoa oil or salmon oil. After oral administration of an extract prepared from 5 g of green tea (5 g/kg of body weight) to rats, blood was taken every half hour and analyzed by means of HPLC and GC/MS.

vimentin = vimentin (Homo sapiens, UniProt P08670); conditions: Ermakova et al. 2005; cited from earlier work
vimentin, sequence (P08670 whole entry, species assumed): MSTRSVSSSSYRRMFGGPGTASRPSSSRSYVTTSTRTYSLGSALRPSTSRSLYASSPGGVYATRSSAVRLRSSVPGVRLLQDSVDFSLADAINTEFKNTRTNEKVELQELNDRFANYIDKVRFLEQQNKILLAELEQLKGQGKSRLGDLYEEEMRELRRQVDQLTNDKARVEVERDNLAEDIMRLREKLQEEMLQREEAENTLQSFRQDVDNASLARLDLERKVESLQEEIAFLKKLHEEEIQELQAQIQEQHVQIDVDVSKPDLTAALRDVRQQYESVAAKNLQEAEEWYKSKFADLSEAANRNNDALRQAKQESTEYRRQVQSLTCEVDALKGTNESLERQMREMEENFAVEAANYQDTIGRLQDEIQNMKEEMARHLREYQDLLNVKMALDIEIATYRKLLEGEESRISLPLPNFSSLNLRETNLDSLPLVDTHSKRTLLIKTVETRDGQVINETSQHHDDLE

[3] = system: antibodies to the polypeptides of the invention; experiment: Follow-up of antibody titer (ELISA based on the polypeptide) and DAS score in treated RA patients; type: in vivo, human; conditions: for antibody titers, fraction of the starting value: patients with low disease activity (average DAS 2.8), in the course of 1-2 years, on average; for alteration in the DAS score due to treatment: severe rheumatoid arthritis (average DAS score of 4.9)
From the text: Patients having low disease activity (average DAS score of 2.8) were identified by an ELISA based on the polypeptide of the invention (<300 U/ml on average). Correlating with the success of treatment (DAS score less than 1.5 after treatment) with sulfasalazine or cortisone, the antibody titers were reduced to, on average, ⅙ of the starting value in the course of 1-2 years.
Patients suffering from severe rheumatoid arthritis (average DAS score of 4.9) had, on average, an antibody titer of >1000 U/ml. […] In parallel with the altered antibody titer, patients reported during anamnesis a substantially more positive overall evaluation of their subjective situation regarding the disease, i.e. the diagnostic agent of the invention is also suitable for quality control of the therapy of a severe rheumatoid arthritis.

[4] = extract from 5 g green tea (5 g/kg of body weight)

T1 sequence (P08670 whole entry G16R/P18T/P24T/G41R/P46T/A54Y/G59R/A67Y/P75T/G76R/R78S): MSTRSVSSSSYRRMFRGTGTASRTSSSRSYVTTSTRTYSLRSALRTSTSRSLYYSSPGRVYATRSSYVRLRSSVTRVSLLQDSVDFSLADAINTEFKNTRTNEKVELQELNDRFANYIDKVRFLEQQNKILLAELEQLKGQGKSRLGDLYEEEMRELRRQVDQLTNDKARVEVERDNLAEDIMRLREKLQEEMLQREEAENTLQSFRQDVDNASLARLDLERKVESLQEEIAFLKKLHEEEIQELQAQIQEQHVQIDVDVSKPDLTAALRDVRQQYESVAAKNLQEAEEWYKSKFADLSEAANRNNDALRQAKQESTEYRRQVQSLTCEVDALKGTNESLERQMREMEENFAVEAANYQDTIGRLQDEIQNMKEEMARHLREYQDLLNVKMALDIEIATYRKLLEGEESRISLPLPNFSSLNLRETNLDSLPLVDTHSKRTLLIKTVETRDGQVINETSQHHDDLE

Compound: Oc1cc(O)c2c(c1)O[C@H](c1ccc(O)c(O)c1)[C@H](O)C2 [EC, Epicatechin]
- blocking of antibody binding ([1]; competition experiments, maximum): ≤ 10%

Compound: O=C(O[C@@H]1Cc2c(O)cc(O)cc2O[C@@H]1c1cc(O)c(O)c(O)c1)c1cc(O)c(O)c(O)c1 [EGCG, Epigallocatechin gallate]
- blocking of formation of autoimmune complexes of autoantibodies to mutated vimentin [1]: blocked in a concentration-dependent manner
- blocking of antibody binding ([1]; concentration of 10-100 μg/ml): no more than 45%
- maximum plasma concentration for EGCG (content of 50% in the extract) [2, 4]: about 245 μg/ml
- maximum plasma concentration of EC and EGCG (5-13% of the extract mass) [2, 4]: 75 µg/mL
- time of maximum plasma concentration after intake ([2]; extract from 5 g green tea (5 g/kg of body weight) in cocoa oil or salmon oil): About 2 hours
- binding to vimentin (vimentin): binds to vimentin

Compound: C[C@]12CCC(=O)C=C1CC[C@@H]1[C@@H]2C(=O)C[C@@]2(C)[C@H]1CC[C@]2(O)C(=O)CO [cortisone]
- antibody titers, fraction of the starting value [3]: ⅙

Compound: CN(Cc1cnc2nc(N)nc(N)c2n1)c1ccc(C(=O)N[C@@H](CCC(=O)O)C(=O)O)cc1 [methotrexate]
- alteration in the DAS score due to treatment [3]: no significant alteration

Compound: O=C(O)c1cc(/N=N/c2ccc(S(=O)(=O)Nc3ccccn3)cc2)ccc1O [sulfasalazine]
- antibody titers, fraction of the starting value [3]: ⅙

Compound: Remicade: marketed drug used to treat severe rheumatoid arthritis
- alteration in the DAS score due to treatment [3]: no significant alteration
